Measurements from PMC11098091 (Nature chemical biology, 2022).

Assays:
[1] = molecular target: T1, μOR Q124^2.60A mutant (Homo sapiens, UniProt P35372, Q126A); assay type: cell-based
[2] = molecular target: T1, μOR Q124^2.60A mutant; assay type: cell-based; remark: listed apart in the source
[3] = molecular target: human μOR (Gz) (Homo sapiens, UniProt P35372); assay type: cell-based; settings: read-out: potency at Gz
[4] = molecular target: T2, wild type human μOR (Homo sapiens, UniProt P35372); assay type: cell-based
[5] = molecular target: T2, wild type human μOR; assay type: cell-based; remark: listed apart in the source
[6] = molecular target: T3, μOR Y326^7.43F mutant (Homo sapiens, UniProt P35372, Y328F); assay type: cell-based
[7] = test system: mice; settings: mouse, in vivo; cited from earlier work
[8] = molecular target: human μOR (β-arrestin-1, β-arrestin-2) (Homo sapiens, UniProt P35372); assay type: cell-based
[9] = molecular target: human μOR (GoB) (Homo sapiens, UniProt P35372); assay type: cell-based; settings: read-out: potency at GoB
[10] = molecular target: human μOR (Homo sapiens, UniProt P35372); assay type: cell-based
[11] = molecular target: T3, μOR Y326^7.43F mutant; assay type: cell-based; remark: listed apart in the source

Sequence of human μOR (P35372 whole entry): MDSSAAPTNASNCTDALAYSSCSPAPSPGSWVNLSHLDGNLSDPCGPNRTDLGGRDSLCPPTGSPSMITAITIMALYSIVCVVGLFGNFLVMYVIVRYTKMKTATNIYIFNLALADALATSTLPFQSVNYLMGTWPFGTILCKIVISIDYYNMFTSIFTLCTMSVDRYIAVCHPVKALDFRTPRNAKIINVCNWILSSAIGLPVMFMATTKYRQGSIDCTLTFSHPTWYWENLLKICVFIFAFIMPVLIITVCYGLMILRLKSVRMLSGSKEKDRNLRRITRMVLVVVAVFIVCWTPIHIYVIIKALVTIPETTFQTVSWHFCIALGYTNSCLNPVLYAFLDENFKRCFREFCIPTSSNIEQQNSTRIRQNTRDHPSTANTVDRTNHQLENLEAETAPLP
T2 sequence (P35372 whole entry): as above
T1 sequence (P35372 whole entry Q126A): as the sequence (P35372 whole entry) above, with Q126A counted along it
T3 sequence (P35372 whole entry Y328F): as the sequence (P35372 whole entry) above, with Y328F counted along it
Sequence of human μOR (GoB) (P35372 whole entry): as the sequence (P35372 whole entry) above
Sequence of human μOR (β-arrestin-1, β-arrestin-2) (P35372 whole entry): as above
Sequence of human μOR (Gz) (P35372 whole entry): as above

CC[C@@H]1CN2CC[C@]3(Nc4cccc(OC)c4C3=O)[C@@H]2C[C@@H]1/C(=C\OC)C(=O)OC [MP, Mitragynine pseudoindoxyl]
reduction of maximal Gi response by the Q124A mutation [1]: more than half | arrestin recruitment at the Q124A mutant [2]: completely abolishes | EC50 [3]: 0.9 nM | potency in G protein dissociation assays [4]: as potent as DAMGO | recruitment of β-arrestins [5]: very little detectable activity | reduction of maximal β-arrestin 2 recruitment by the Y326F mutation [6]: eliminated detectable | development of antinociceptive tolerance [7]: much more slowly | potency relative to morphine [7]: approximately ten-fold more potent | respiratory depression [7]: did not cause respiratory depression | recruitment of β-arrestins [8]: no detectable recruitment | EC50 [9]: 3.2 nM | efficacy at Gi/o/z subtypes compared to DAMGO [10]: partial agonist | potency spread across G protein subtypes [10]: ~ 3 fold | reduction of maximal Gi1 activation by the Y326F mutation [11]: 68%
